Several values for one entry are separate records, joined by “and”; a condition that tells them apart may be missing. Equal entries are not always repeated.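 The compound was tested at five concentrations on cells cultured in 96-well plates, with a 48-hour exposure period. The concentration for 50% growth inhibition is given as GI50.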 Activity calls are given as the source filed them. Cut-off read from the data, not from the text of the source: active = GI50 up to about 1.1 µM and inactive = higher.
Key:
Assay in all cases: NCI anticancer screen, dose series, 48 h
[1] = tested on: Hs-578T
[2] = tested on: NCI-H226
[3] = tested on: OVCAR-3
[4] = tested on: DU-145
[5] = tested on: SR
[6] = tested on: CAKI-1
[7] = tested on: ACHN
[8] = tested on: SNB-19
[9] = tested on: U-251
[10] = tested on: MDA-MB-435
[11] = tested on: TK-10
[12] = tested on: SK-MEL-5
[13] = tested on: RXF 393
[14] = tested on: HOP-62
[15] = tested on: OVCAR-8
[16] = tested on: SF-295
[17] = tested on: SF-539
[18] = tested on: OVCAR-4
[19] = tested on: A549
[20] = tested on: 786-0
[21] = tested on: NCI-H522
[22] = tested on: K562
[23] = tested on: Malme-3M
[24] = tested on: COLO 205
[25] = tested on: M14
[26] = tested on: MCF7
[27] = tested on: UACC-257
[28] = tested on: RPMI-8226
[29] = tested on: T47D
[30] = tested on: SNB-75
[31] = tested on: NCI/ADR-RES
[32] = tested on: SN12C
[33] = tested on: HCC 2998
[34] = tested on: UO-31
[35] = tested on: CCRF-CEM
[36] = tested on: SW-620
[37] = tested on: MOLT-4
[38] = tested on: MDA-N
[39] = tested on: NCI-H23
[40] = tested on: HCT-15
[41] = tested on: KM12
[42] = tested on: SK-OV-3
[43] = tested on: EKVX
[44] = tested on: HCT-116
[45] = tested on: SF-268
[46] = tested on: OVCAR-5
[47] = tested on: UACC-62
[48] = tested on: HT-29
[49] = tested on: HOP-92
[50] = tested on: NCI-H460
[51] = tested on: A498
[52] = tested on: HL-60
[53] = tested on: MDA-MB-231
[54] = tested on: LOX IMVI
[55] = tested on: SK-MEL-28
[56] = tested on: SK-MEL-2
[57] = tested on: PC-3
[58] = tested on: IGROV-1

Q: Which GI50 [1] does the source give for O=[N+]([O-])c1ccc(OC2CC3C4C=CC3C2C4)c([N+](=O)[O-])c1 (stereo not drawn) here?
A: 33.7 µM (inactive) and > 31.6 µM (inactive)

Q: What about the GI50 [2] of the same compound?
A: > 31.6 µM (inactive) and 42 µM (inactive)

Q: And the GI50 [3]?
A: 43.5 µM (inactive) and 29.4 µM (inactive)

Q: And the GI50 [4]?
A: 45.8 µM (inactive) and > 31.6 µM (inactive)

Q: What about the GI50 [5] of the same compound?
A: > 10 µM (inactive)

Q: And the GI50 [6]?
A: 29.2 µM (inactive) and > 31.6 µM (inactive)

Q: What about the GI50 [7] of the same compound?
A: 37.4 µM (inactive) and > 31.6 µM (inactive)

Q: What about the GI50 [8] of the same compound?
A: 32.3 µM (inactive) and > 31.6 µM (inactive)

Q: And the GI50 [9]?
A: 37.6 µM (inactive) and > 31.6 µM (inactive)

Q: What about the GI50 [10] of the same compound?
A: > 31.6 µM (inactive) and 24.3 µM (inactive)

Q: And the GI50 [11]?
A: > 31.6 µM (inactive) and 33.7 µM (inactive)

Q: And the GI50 [12]?
A: 39.8 µM (inactive) and 21 µM (inactive)

Q: What about the GI50 [13] of the same compound?
A: 42.6 µM (inactive) and > 31.6 µM (inactive)

Q: And the GI50 [14]?
A: 45 µM (inactive) and > 31.6 µM (inactive)

Q: And the GI50 [15]?
A: 39.2 µM (inactive) and > 31.6 µM (inactive)

Q: And the GI50 [16]?
A: 16.5 µM (inactive) and > 31.6 µM (inactive)

Q: And the GI50 [17]?
A: > 31.6 µM (inactive) and 26.3 µM (inactive)

Q: And the GI50 [18]?
A: 22.8 µM (inactive) and > 31.6 µM (inactive)

Q: And the GI50 [19]?
A: 31 µM (inactive) and 33.3 µM (inactive)

Q: And the GI50 [20]?
A: 24.6 µM (inactive) and > 31.6 µM (inactive)

Q: What about the GI50 [21] of the same compound?
A: 43.6 µM (inactive) and > 31.6 µM (inactive)

Q: And the GI50 [22]?
A: 30.8 µM (inactive) and > 31.6 µM (inactive)

Q: And the GI50 [23]?
A: 31.4 µM (inactive) and 34.8 µM (inactive)

Q: What about the GI50 [24] of the same compound?
A: 54 µM (inactive) and > 31.6 µM (inactive)

Q: What about the GI50 [25] of the same compound?
A: 21.6 µM (inactive) and > 31.6 µM (inactive)

Q: What about the GI50 [26] of the same compound?
A: > 100 µM (inactive) and 61.4 µM (inactive)

Q: What about the GI50 [27] of the same compound?
A: 20.9 µM (inactive) and > 31.6 µM (inactive)

Q: And the GI50 [28]?
A: 0.0465 µM (active)

Q: Which results are given for CC(C)(C)OC(=O)N1NC(c2ccccc2)CC1c1ccccc1 (stereo not drawn)?
A: GI50 [1]: 36.6 µM (inactive); GI50 [2]: 29.1 µM (inactive); GI50 [3]: 34.8 µM (inactive); GI50 [29]: 13.5 µM (inactive); GI50 [30]: 17.1 µM (inactive); GI50 [4]: 27.2 µM (inactive); GI50 [5]: 27.2 µM (inactive); GI50 [31]: 20.2 µM (inactive); GI50 [6]: 35 µM (inactive); GI50 [32]: 45.1 µM (inactive); GI50 [7]: 28.1 µM (inactive); GI50 [10]: 24.3 µM (inactive); GI50 [11]: 37.3 µM (inactive); GI50 [33]: 38.5 µM (inactive); GI50 [34]: 15.7 µM (inactive); GI50 [12]: 19.6 µM (inactive); GI50 [35]: 19 µM (inactive); GI50 [36]: 45 µM (inactive); GI50 [13]: 15.8 µM (inactive); GI50 [37]: 24.8 µM (inactive); GI50 [38]: 42.6 µM (inactive); GI50 [14]: 50.8 µM (inactive); GI50 [39]: 17.4 µM (inactive); GI50 [15]: 35.3 µM (inactive); GI50 [40]: 22.1 µM; GI50 [16]: 33.6 µM (inactive); GI50 [17]: 42.5 µM (inactive); GI50 [41]: 20.7 µM (inactive); GI50 [42]: 37.6 µM (inactive); GI50 [19]: 13.8 µM (inactive); GI50 [43]: 33.7 µM (inactive); GI50 [20]: 38.3 µM (inactive); GI50 [21]: 31.6 µM (inactive); GI50 [44]: 29.7 µM (inactive); GI50 [45]: 65.2 µM (inactive); GI50 [46]: 28.4 µM (inactive); GI50 [47]: 20.6 µM (inactive); GI50 [22]: 31.7 µM (inactive); GI50 [48]: 26.7 µM (inactive); GI50 [24]: 20 µM (inactive); GI50 [25]: 16.3 µM (inactive); GI50 [26]: 23.7 µM (inactive); GI50 [27]: 43.7 µM (inactive); GI50 [28]: 35.6 µM (inactive); GI50 [49]: 37.7 µM (inactive); GI50 [50]: 30.4 µM (inactive); GI50 [51]: 27.8 µM (inactive)

Q: Which GI50 [1] does the source give for CC(=O)/C(=C/NC(=S)Nc1ccccc1)C(=O)Nc1ccccc1C here?
A: > 100 µM (inactive)

Q: What about the GI50 [2] of the same compound?
A: > 100 µM (inactive)

Q: And the GI50 [3]?
A: 61.1 µM (inactive)

Q: What about the GI50 [29] of the same compound?
A: 52.4 µM (inactive)

Q: And the GI50 [30]?
A: 49.9 µM (inactive)

Q: And the GI50 [4]?
A: > 100 µM (inactive)

Q: And the GI50 [5]?
A: > 100 µM (inactive)

Q: And the GI50 [31]?
A: > 100 µM (inactive)

Q: And the GI50 [52]?
A: 84.9 µM (inactive)

Q: What about the GI50 [53] of the same compound?
A: 29.4 µM (inactive)

Q: What about the GI50 [6] of the same compound?
A: 40.9 µM (inactive)

Q: And the GI50 [32]?
A: > 100 µM (inactive)

Q: What about the GI50 [7] of the same compound?
A: > 100 µM (inactive)

Q: What about the GI50 [8] of the same compound?
A: > 100 µM (inactive)

Q: And the GI50 [9]?
A: > 100 µM (inactive)

Q: And the GI50 [10]?
A: > 100 µM (inactive)

Q: And the GI50 [11]?
A: > 100 µM (inactive)

Q: And the GI50 [33]?
A: > 100 µM (inactive)

Q: And the GI50 [34]?
A: 41.8 µM (inactive)

Q: What about the GI50 [12] of the same compound?
A: 61.2 µM (inactive)

Q: What about the GI50 [35] of the same compound?
A: > 100 µM (inactive)

Q: And the GI50 [36]?
A: > 100 µM (inactive)

Q: And the GI50 [13]?
A: > 100 µM (inactive)

Q: What about the GI50 [54] of the same compound?
A: > 100 µM (inactive)

Q: And the GI50 [37]?
A: > 100 µM (inactive)

Q: What about the GI50 [55] of the same compound?
A: > 100 µM (inactive)

Q: What about the GI50 [38] of the same compound?
A: > 100 µM (inactive)

Q: What about the GI50 [56] of the same compound?
A: > 100 µM (inactive)

Q: What about the GI50 [14] of the same compound?
A: > 100 µM (inactive)

Q: What about the GI50 [39] of the same compound?
A: > 100 µM (inactive)

Q: And the GI50 [15]?
A: > 100 µM (inactive)

Q: What about the GI50 [40] of the same compound?
A: > 100 µM

Q: What about the GI50 [16] of the same compound?
A: > 100 µM (inactive)

Q: What about the GI50 [17] of the same compound?
A: > 100 µM (inactive)

Q: What about the GI50 [41] of the same compound?
A: > 100 µM (inactive)

Q: And the GI50 [42]?
A: > 100 µM (inactive)

Q: And the GI50 [18]?
A: > 100 µM (inactive)

Q: And the GI50 [19]?
A: > 100 µM (inactive)

Q: And the GI50 [43]?
A: > 100 µM (inactive)

Q: What about the GI50 [20] of the same compound?
A: > 100 µM (inactive)

Q: What about the GI50 [21] of the same compound?
A: > 100 µM (inactive)

Q: What about the GI50 [57] of the same compound?
A: > 100 µM (inactive)

Q: What about the GI50 [44] of the same compound?
A: > 100 µM (inactive)

Q: And the GI50 [45]?
A: 91 µM (inactive)

Q: And the GI50 [46]?
A: > 100 µM (inactive)

Q: What about the GI50 [47] of the same compound?
A: > 100 µM (inactive)

Q: And the GI50 [58]?
A: > 100 µM (inactive)

Q: And the GI50 [22]?
A: 96.2 µM (inactive)

Q: And the GI50 [48]?
A: 77.8 µM (inactive)

Q: What about the GI50 [23] of the same compound?
A: > 100 µM (inactive)

Q: And the GI50 [24]?
A: > 100 µM (inactive)

Q: What about the GI50 [25] of the same compound?
A: > 100 µM (inactive)

Q: And the GI50 [26]?
A: > 100 µM (inactive)

Q: And the GI50 [27]?
A: > 100 µM (inactive)

Q: What about the GI50 [28] of the same compound?
A: > 100 µM (inactive)

Q: And the GI50 [49]?
A: 99.1 µM (inactive)

Q: And the GI50 [50]?
A: > 100 µM (inactive)

Q: And the GI50 [51]?
A: > 100 µM (inactive)

Source: ChEMBL document CHEMBL1201862, “PubChem BioAssay data set” (2004)
